The NIST ThermoML archive (doi:10.1021/je700373r)

Experiments:
[1] = xn = mol fraction of the nth substance listed; settings: Fluid (supercritical or subcritical phases), Vibrating tube method, x2 = 0
[2] = Fluid (supercritical or subcritical phases), Vibrating tube method

O=C=O [carbon dioxide] + CC1=C(/C=C/C(C)=C/C=C/C(C)=C/C=C/C=C(C)/C=C/C=C(C)/C=C/C2=C(C)CCCC2(C)C)C(C)(C)CCC1
mass density [kg/m3], [1]
Settings | 10000 kPa | 15000 kPa | 20000 kPa | 30000 kPa | 40000 kPa
308.15 K | 717.2 | 816.1 | 866.1 | 929 | 971.7
313.15 K | 636.6 | 781.3 | 840.2 | 909.7 | 955.5
323.15 K | 397.3 | 701.8 | 784.9 | 870.3 | 922.8
333.15 K | 296.1 | 607 | 724.4 | 829.6 | 889.8

O=C=O [carbon dioxide]
mass density [kg/m3], [2]
Settings | 10000 kPa | 15000 kPa | 20000 kPa | 30000 kPa | 40000 kPa
308.15 K | 717.2 | 816.1 | 866.1 | 929 | 971.7
313.15 K | 636.6 | 781.3 | 840.2 | 909.7 | 955.5
323.15 K | 397.3 | 701.8 | 784.9 | 870.3 | 922.8
333.15 K | 296.1 | 607 | 724.4 | 829.6 | 889.8
